Experimental data reported in patent US20130102595A1 (Curis, Inc., priority 2011, published 2013).

Key:
[1] = system: HDACs (HeLa cell nuclear extracts); experiment: HDAC enzymatic activity, Biomol Color de Lys system; format: biochemical; conditions: 1 hour, 25° C.
In short: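 HeLa nuclear extract incubated with serially diluted compound and […] artificial substrate in 50 mM Tris/Cl pH 8.0, 137 mM NaCl, 2.7 mM KCl, 1 mM MgCl2. Run 1 h at 25 °C, stopped with developer. Fluorescence read (ex 350-380, em 440-460 nm); IC50 from sigmoidal dose-response fit.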

[2] = target: T1, PI3Kα (p110α/p85α) (Homo sapiens, UniProt P42336); experiment: PI3Kα ADP-Glo assay; format: biochemical; conditions: 20 μM PIP2, 10 μM ATP, 30 minutes
T1 construct: GST (N); made in house; host or cells: Baculovirus-infected Sf9 cells
T1 sequence (P42336 whole entry): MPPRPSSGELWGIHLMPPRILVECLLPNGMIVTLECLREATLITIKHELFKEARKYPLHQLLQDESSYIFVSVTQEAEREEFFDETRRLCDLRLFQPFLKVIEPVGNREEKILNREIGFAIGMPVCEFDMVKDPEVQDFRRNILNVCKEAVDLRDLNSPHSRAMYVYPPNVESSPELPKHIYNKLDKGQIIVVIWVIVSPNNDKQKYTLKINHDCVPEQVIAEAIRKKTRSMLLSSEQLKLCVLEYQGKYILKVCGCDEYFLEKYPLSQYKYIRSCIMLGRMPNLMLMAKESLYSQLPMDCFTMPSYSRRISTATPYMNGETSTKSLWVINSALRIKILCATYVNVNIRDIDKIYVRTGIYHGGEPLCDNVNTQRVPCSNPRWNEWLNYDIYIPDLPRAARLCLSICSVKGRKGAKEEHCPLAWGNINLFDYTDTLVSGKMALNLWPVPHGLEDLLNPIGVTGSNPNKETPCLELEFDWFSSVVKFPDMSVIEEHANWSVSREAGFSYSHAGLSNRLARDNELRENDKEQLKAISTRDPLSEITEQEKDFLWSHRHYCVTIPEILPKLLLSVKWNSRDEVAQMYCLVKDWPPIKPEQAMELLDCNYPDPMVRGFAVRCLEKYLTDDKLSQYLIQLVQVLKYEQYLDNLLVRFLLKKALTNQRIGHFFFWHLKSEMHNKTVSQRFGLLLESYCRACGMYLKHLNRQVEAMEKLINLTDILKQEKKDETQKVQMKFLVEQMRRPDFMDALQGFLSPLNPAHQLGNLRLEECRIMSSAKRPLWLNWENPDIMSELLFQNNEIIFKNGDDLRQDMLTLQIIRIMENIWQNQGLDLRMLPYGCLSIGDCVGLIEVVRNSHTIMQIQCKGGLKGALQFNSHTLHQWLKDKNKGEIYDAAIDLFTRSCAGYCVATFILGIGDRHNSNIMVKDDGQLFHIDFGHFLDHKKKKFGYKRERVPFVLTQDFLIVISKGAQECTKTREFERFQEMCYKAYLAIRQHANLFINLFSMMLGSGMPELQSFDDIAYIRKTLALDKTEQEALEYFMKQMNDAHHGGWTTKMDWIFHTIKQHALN
T1 sequence (P27986 whole entry partner): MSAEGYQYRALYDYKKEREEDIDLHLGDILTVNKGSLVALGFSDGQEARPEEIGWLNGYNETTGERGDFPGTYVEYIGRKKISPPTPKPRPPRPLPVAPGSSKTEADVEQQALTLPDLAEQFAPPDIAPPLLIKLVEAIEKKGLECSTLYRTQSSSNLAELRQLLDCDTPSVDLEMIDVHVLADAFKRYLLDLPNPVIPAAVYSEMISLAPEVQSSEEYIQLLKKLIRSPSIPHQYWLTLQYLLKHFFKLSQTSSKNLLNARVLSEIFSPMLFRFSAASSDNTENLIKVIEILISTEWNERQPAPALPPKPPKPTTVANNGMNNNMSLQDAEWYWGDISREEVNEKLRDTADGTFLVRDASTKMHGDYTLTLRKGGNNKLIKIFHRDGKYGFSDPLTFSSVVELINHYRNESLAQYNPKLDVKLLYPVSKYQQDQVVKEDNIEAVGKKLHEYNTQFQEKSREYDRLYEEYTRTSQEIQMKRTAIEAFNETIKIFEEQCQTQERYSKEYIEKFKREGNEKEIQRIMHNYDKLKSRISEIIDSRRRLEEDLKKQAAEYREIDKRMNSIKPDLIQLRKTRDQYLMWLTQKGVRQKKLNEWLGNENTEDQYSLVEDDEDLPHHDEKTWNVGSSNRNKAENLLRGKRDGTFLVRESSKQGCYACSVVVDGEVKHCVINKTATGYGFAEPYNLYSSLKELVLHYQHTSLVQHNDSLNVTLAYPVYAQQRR
In short: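 Recombinant full-length human GST-p110α/His-p85α, co-expressed in Sf9 cells, was incubated 30 min at room temperature with 20 μM PIP2 and 10 μM ATP. The buffer was 50 mM HEPES pH 7.4, 150 mM NaCl, 5 mM MgCl2, 1 mM DTT, 3 µM orthovanadate and 0.5% DMSO. ADP formed was detected by ADP-Glo luminescence.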

Row | IC50 [1] | melting point | IC50 [2] | Compound
1 | < 100 nM | 218 to 223 °C | 100 to 1000 nM | CN(Cc1cc2nc(-c3ccc(CO)cc3)nc(N3CCOCC3)c2s1)c1ncc(C(=O)NO)cn1 [Compound 140, N-hydroxy-2-(((2-(4-(hydroxymethyl)phenyl)-4-morpholinothieno[3,2-d]pyrimidin-6-yl)methyl)(methyl)amino)pyrimidine-5-carboxamide]
2 | < 100 nM | 214 to 216 °C | > 10000 nM | CN(Cc1cc2nc(-c3ccc(C#N)cc3)nc(N3CCOCC3)c2s1)c1ncc(C(=O)NO)cn1 [Compound 146, 2-(((2-(4-cyanophenyl)-4-morpholinothieno[3,2-d]pyrimidin-6-yl)methyl)(methyl)amino)-N-hydroxypyrimidine-5-carboxamide]
3 | < 100 nM | 155 °C (dec.) | > 10000 nM | CC(C)c1ccc(-c2nc(N3CCOCC3)c3sc(CN(C)c4ncc(C(=O)NO)cn4)cc3n2)cc1 [Compound 148, N-hydroxy-2-(((2-(4-isopropylphenyl)-4-morpholinothieno[3,2-d]pyrimidin-6-yl)methyl)(methyl)amino)pyrimidine-5-carboxamide]
4 | < 100 nM | 218 to 220 °C | > 10000 nM | CNc1ccc(-c2nc(N3CCOCC3)c3sc(CN(C)c4ncc(C(=O)NO)cn4)cc3n2)cc1 [Compound 151, N-hydroxy-2-(methyl((2-(4-(methylamino)phenyl)-4-morpholinothieno[3,2-d]pyrimidin-6-yl)methyl)amino)pyrimidine-5-carboxamide]

Second part, the compound before the results:

Row | Compound | IC50 [1] | melting point | IC50 [2]
5 | COCc1cccc(-c2nc(N3CCOCC3)c3sc(CN(C)c4ncc(C(=O)NO)cn4)cc3n2)c1 [Compound 139, N-hydroxy-2-(((2-(3-(methoxymethyl)phenyl)-4-morpholinothieno[3,2-d]pyrimidin-6-yl)methyl)(methyl)amino)pyrimidine-5-carboxamide] | < 100 nM | 178 to 181 °C | 100 to 1000 nM
6 | CN(Cc1cc2nc(-c3ccccc3CO)nc(N3CCOCC3)c2s1)c1ncc(C(=O)NO)cn1 [Compound 141, N-hydroxy-2-(((2-(2-(hydroxymethyl)phenyl)-4-morpholinothieno[3,2-d]pyrimidin-6-yl)methyl)(methyl)amino)pyrimidine-5-carboxamide] | < 100 nM | 173 to 176 °C | 100 to 1000 nM
7 | CN(Cc1cc2nc(-c3ccc(C(N)=O)cc3)nc(N3CCOCC3)c2s1)c1ncc(C(=O)NO)cn1 [Compound 143, 2-(((2-(4-carbamoylphenyl)-4-morpholinothieno[3,2-d]pyrimidin-6-yl)methyl)(methyl)amino)-N-hydroxypyrimidine-5-carboxamide] | < 100 nM | 200 to 202 °C | 100 to 1000 nM
8 | CNC(=O)c1cccc(-c2nc(N3CCOCC3)c3sc(CN(C)c4ncc(C(=O)NO)cn4)cc3n2)c1 [Compound 144, N-hydroxy-2-(methyl((2-(3-(methylcarbamoyl)phenyl)-4-morpholinothieno[3,2-d]pyrimidin-6-yl)methyl)amino)pyrimidine-5-carboxamide] | < 100 nM | 215 to 217 °C | 1000 to 10000 nM
9 | CN(Cc1cc2nc(-c3ccc(Cl)cc3)nc(N3CCOCC3)c2s1)c1ncc(C(=O)NO)cn1 [Compound 147, 2-(((2-(4-chlorophenyl)-4-morpholinothieno[3,2-d]pyrimidin-6-yl)methyl)(methyl)amino)-N-hydroxypyrimidine-5-carboxamide] | < 100 nM | 153 °C | > 10000 nM
10 | CN(Cc1cc2nc(-c3ccc(S(C)(=O)=O)cc3)nc(N3CCOCC3)c2s1)c1ncc(C(=O)NO)cn1 [Compound 149, N-hydroxy-2-(methyl((2-(4-(methylsulfonyl)phenyl)-4-morpholinothieno[3,2-d]pyrimidin-6-yl)methyl)amino)pyrimidine-5-carboxamide] | < 100 nM | 206 to 208 °C | > 10000 nM
